Assay results published in patent US4622337A, “2,2-dimethyl-3-(2-halovinyl)cyclopropane carboxlic acid ester pesticides” (priority 1972, dated 1986).

How the values were obtained:
[1] = test system: houseflies (Musca domestica); test: Relative toxicity to houseflies, topical drop on thorax; format: in vivo; conditions: 5-benzyl-3-furylmethyl (1R)-trans-chrysanthemate = 1000; inverse ratio of LD50; topical, female flies
Method: (§1) The toxicity of these new esters was tested by the procedure described in detail in our above mentioned application and the following results were obtained:
(§2) The insecticidal acitivity of the esters of the invention was assessed against houseflies and mustard beetles using the following techniques:
Female flies were treated on the thorax with a one microliter drop of insecticide dissolved in acetone. Two replicates of 15 flies were used at each dose rate and 6 dose rates were used per compound under test. After treatment, the flies were maintained at a temperature of 20° C.±1° and kill was assessed 24 and 48 hours after treatment. LD50 values were calculated in micrograms of insecticide per fly and relative toxicities were calculated from the inverse ratios of the LD50 values. (see Sawicki et al, Bulletin of the World Health Organization, 35,893, (1966) and Sawicki et al, Entomologia and Exp. Appl. 10, 253, (1967)).
(§3) Relative toxicities were calculated by comparison with 5-benzyl-3-furylmethyl(1R)-trans-chrysanthemate which is one of the most toxic chrysanthemate esters known to houseflies and mustard beetles, its toxicity being about 24 times that of allethrin to houseflies and 65 times that of allethrin to mustard beetles.

[2] = test system: mustard beetles (Phaedon cochleariae Fab); test: Relative toxicity to mustard beetles, topical micro drop; format: in vivo; conditions: 5-benzyl-3-furylmethyl (1R)-trans-chrysanthemate = 1000; inverse ratio of LD50; topical, 48 hours
Method: as §1, §2
Acetone solutions of the test compound were applied ventrally to adult mustard beetles using a micro drop applicator. The treated insects were maintained for 48 hours after which time kill is assessed. Two replicates of 40 to 50 mustard beetles were used at each dose level and 3 to 4 dose levels were used for each compound. Again, LD50 values were calculated and relative toxicities were calculated for the inverse ratios of LD50 (see Elliott et al, J. Sci. Food Agric. 20, 561, (1969)).
as §3

SMILES | Relative Toxicity, Houseflies [1] | Relative Toxicity, Mustard Beetles [2]
CC1(C)C(C=C(Cl)Cl)C1C(=O)OCC#CCOc1ccccc1 (racemic) [Compound ME5, 4-Phenoxybut-2-ynyl(1RS)-cis,trans-3-(2,2-dichlorovinyl)-2,2-dimethylcyclopropane carboxylate] | 300 | 40
CC1(C)C(C=C(Cl)Cl)C1C(=O)OC(C#N)c1coc(Cc2ccccc2)c1 (racemic) [Compound P21N, (αRS)-Cyano-5-benzyl-3-furylmethyl-(1RS)-cis-trans-3-(2,2-dichlorovinyl)-2,2-dimethyl cyclopropane carboxylate] | 100 | 2000
CC1(C)C(C=C(Cl)Cl)C1C(=O)OC(C#N)c1cccc(Oc2ccccc2)c1 (racemic) [Compound P29F, (αRS)-cyano-3-phenoxybenzyl(1RS)-cis-trans-2,2-dimethyl-3-(2,2-dichlorovinyl)-cyclopropane carboxylate] | 1700 | 
CC1(C)[C@H](C=C(Cl)Cl)[C@H]1C(=O)OCc1cccc(C(=O)c2ccccc2)c1 (racemic) [Compound P39B, 3-benzoylbenzyl(1RS)-trans-2,2-dimethyl-3-(2,2-dichlorovinyl)-cyclopropane carboxylate] | 10 | 590
CC1(C)C(C=C(Cl)Cl)C1C(=O)OC1C=C(Cc2ccccc2)C(=O)C1 (racemic) [ME8, (±)-2-benzylcyclopentenon-4-yl(1RS)-cis,trans-3,(2,2-dichlorovinyl)-2,2-dimethylcyclopropane carboxylate] | 50 | 265
CC1(C)[C@H](C=C(Cl)Cl)[C@H]1C(=O)OCc1cccc(Cc2ccccc2)c1 (relative stereo) [Compound P21I] | 170 | 420
CC1(C)[C@H](C(=O)OCc2cccc(Cc3ccccc3)c2)[C@@H]1C=C(Cl)Cl (relative stereo) [Compound P21J] | 360 | 350
CC1(C)[C@H](C(=O)OC(C#N)c2cccc(Oc3ccccc3)c2)[C@@H]1C=C(Cl)Cl (relative stereo) [Compound P29G, (αRS)-cyano-3-phenoxybenzyl(1RS)-cis-2,2-dimethyl-3-(2,2-dichlorovinyl)-cyclopropane carboxylate] | 3800 | 2400
CC1(C)[C@H](C=C(Cl)Cl)[C@H]1C(=O)OC(C#N)c1cccc(Oc2ccccc2)c1 (relative stereo) [Compound P29H, (αRS)-cyano-3-phenoxybenzyl(1RS)-trans-2,2-dimethyl-3-(2,2-dichlorovinyl)-cyclopropane carboxylate] | 1800 | 750
CC1(C)[C@H](C=C(Cl)Cl)[C@H]1C(=O)OC(C#N)c1cccc(C(=O)c2ccccc2)c1 (relative stereo) [Compound P39F, (αRS)-cyano-3-benzoylbenzyl(1RS)-trans-2,2-dimethyl-3-(2,2-dichlorovinyl)-cyclopropane carboxylate] | 80 | 600
C=CC=CCC1=C(C)C(OC(=O)C2C(C=C(Cl)Cl)C2(C)C)CC1=O (single isomer, unassigned) [Compound P21M] | 19 | 370
C=C/C=C\CC1=C(C)C(OC(=O)[C@@H]2[C@@H](/C=C\CC)C2(C)C)CC1=O (single isomer, unassigned) [Compound R] | 30 | 300
CCCC=C[C@@H]1[C@@H](C(=O)OCc2coc(Cc3ccccc3)c2)C1(C)C [B] | 630 | 890
C=CCC1=C(C)C(OC(=O)[C@@H]2[C@@H](C=C(C)C)C2(C)C)CC1=O (stereo partly shown) [Bioallethrin, reference compound] | 60 | 20
CCCCC=C[C@@H]1[C@@H](C(=O)OCc2coc(Cc3ccccc3)c2)C1(C)C [Compound C] | 270 | 420
CCC=C(C)C1C(C(=O)OCc2coc(Cc3ccccc3)c2)C1(C)C (stereo not shown) [Compound H] | < 7 | 10
CCCC=C(C)C1C(C(=O)OCc2coc(Cc3ccccc3)c2)C1(C)C (stereo not shown) [Compound I] | < 7 | < 10
CC1(C)[C@H](C(=O)OCC#CCOc2ccccc2)[C@@H]1C=C(F)F [Compound ME3, 4-Phenoxybut-2-ynyl(1R)cis-3-(2,2-difluorovinyl)-2,2-dimethylcyclopropane carboxylate] | 150 | 30
CC1(C)[C@H](C=C(F)F)[C@H]1C(=O)OCC#CCOc1ccccc1 [Compound ME4, 4-Phenoxybut-2-ynyl(1R)-trans-3-(2,2-difluorovinyl)-2,2-dimethylcyclopropane carboxylate] | 60 | 70

SMILES | Relative Toxicity, Houseflies [1] | Relative Toxicity, Mustard Beetles [2]
CC1(C)[C@H](C(=O)OCC#CCOc2ccccc2)[C@@H]1C=C(Br)Br [Compound ME6, 4-Phenoxybut-2-ynyl(1R)cis-3-(2,2-dibromovinyl)-2,2-dimethylcyclopropane carboxylate] | 390 | 50
COC(=O)C=C[C@@H]1[C@@H](C(=O)OCc2coc(Cc3ccccc3)c2)C1(C)C [Compound P19A] | 91 | 100
CCOC(=O)C=C[C@@H]1[C@@H](C(=O)OCc2coc(Cc3ccccc3)c2)C1(C)C [Compound P19B] | 67 | 320
CCCOC(=O)C=C[C@@H]1[C@@H](C(=O)OCc2coc(Cc3ccccc3)c2)C1(C)C [Compound P19C] | 24 | 40
CCOC(=O)C(C)=C[C@@H]1[C@@H](C(=O)OCc2coc(Cc3ccccc3)c2)C1(C)C [Compound P19D] | 290 | 440
CCCOC(=O)C(C)=C[C@@H]1[C@@H](C(=O)OCc2coc(Cc3ccccc3)c2)C1(C)C [Compound P19E] | 290 | 500
CCC(=C[C@@H]1[C@@H](C(=O)OCc2coc(Cc3ccccc3)c2)C1(C)C)C(=O)OC [Compound P19F] | 130 | 360
CCOC(=O)C(=C[C@@H]1[C@@H](C(=O)OCc2coc(Cc3ccccc3)c2)C1(C)C)CC [Compound P19G] | 300 | 500
CCCOC(=O)C(=C[C@@H]1[C@@H](C(=O)OCc2coc(Cc3ccccc3)c2)C1(C)C)CC [Compound P19H] | 20 | 50
CC1(C)[C@H](C=C(Cl)Cl)[C@H]1C(=O)OCc1coc(Cc2ccccc2)c1 [Compound P21A] | 2500 | 2700
CC1(C)[C@H](C=C(Br)Br)[C@H]1C(=O)OCc1coc(Cc2ccccc2)c1 [Compound P21B] | 1100 | 1900
CC1(C)C(C=C(Cl)Cl)C1C(=O)OCc1cccc(Cc2ccccc2)c1 (stereo not shown) [Compound P21K] | 340 | 350
COC(=O)C(Cl)=C[C@@H]1[C@@H](C(=O)OCc2coc(Cc3ccccc3)c2)C1(C)C [Compound P24A, 5-benzyl-3-furylmethyl ester of 2,2-dimethyl-3-(2-chloro-2-carbomethoxyvinyl)cyclopropane carboxylic acid] | 82 | 310
CCOC(=O)C(Cl)=C[C@@H]1[C@@H](C(=O)OCc2coc(Cc3ccccc3)c2)C1(C)C [Compound P24B] | 150 | 310
CCCOC(=O)C(Cl)=C[C@@H]1[C@@H](C(=O)OCc2coc(Cc3ccccc3)c2)C1(C)C [Compound P24C] | 53 | 120
CCOC(=O)C(Br)=C[C@@H]1[C@@H](C(=O)OCc2coc(Cc3ccccc3)c2)C1(C)C [Compound P24D] | 450 | 290
CC1(C)[C@H](C(=O)OCc2cccc(Oc3ccccc3)c2)[C@@H]1C=C(Br)Br [Compound P29A, 3-phenoxybenzyl(1R)cis-2,2-dimethyl-3-(2,2-dibromovinyl)cyclopropane carboxylate] | 2200 | 1600
C=C(C)C1C(C(=O)OCc2coc(Cc3ccccc3)c2)C1(C)C (stereo not shown) [F] | 21 | 
CC=C(C)C1C(C(=O)OCc2coc(Cc3ccccc3)c2)C1(C)C (stereo not shown) [G] | 18 | 
